# Measured values published in patent publication US9669035B2, “Combinations comprising PDE 2 inhibitors such as 1-aryl-4-methyl-[1,2,4]triazolo-[4,3-A]]quinoxaline compounds and PDE 10 inhibitors for use in the treatment of neurological of metabolic disorders” (Janssen Pharmaceutica NV, priority 2012, dated 2017).
# Where a name gives a salt, the structure may show the parent alone. Read-outs that look alike come from different tables or passages of the source.
# Key:
# [1] = test system: d-Amphetamine-induced hyperlocomotion in rats; experiment: d-Amphetamine-induced hyperlocomotion in rats: MP-10 or B-1a alone (FIGS. 6-8); assay type: in vivo, rat
# [2] = test system: d-Amphetamine-induced hyperlocomotion in rats; experiment: d-Amphetamine-induced hyperlocomotion in rats: potentiation of the effect of MP-10; assay type: in vivo, rat; settings: SC, d-amphetamine (1.25 mg/kg, s.c.) + MP-10 (2.5 mg/kg, s.c.)
# [3] = test system: Apomorphine-induced agitation in rats; experiment: Inhibition of apomorphine-induced agitation in rats in combination with Compound A and Compound B (FIGS. 4, 5); assay type: in vivo, rat; settings: -1 h
# [4] = test system: Apomorphine-induced agitation in rats; experiment: Inhibition of apomorphine-induced agitation in rats (APO); settings: for Dose at max effect / Max effect (lowest median cumulative agitation score) / LAD (lowest active dose): SC; for Max effect (lowest median cumulative agitation score): at the dose at max effect; for LAD (lowest active dose): lowest dose at which >=67% tested animals respond
# [5] = test system: d-Amphetamine-induced hyperlocomotion in rats; experiment: Inhibition of d-amphetamine-induced hyperlocomotion in rats in combination with Compound A and Compound B (FIGS. 9, 10); assay type: in vivo, rat; settings: B-1a 0.63-5.0 mg/kg s.c., -1 h
# [6] = test system: cGMP levels in the rat brain; settings: for incr vs contr (pmol cGMP/ml) (measured): increase versus control
# [7] = test system: Apomorphine-induced agitation in rats; experiment: Inhibition of apomorphine-induced agitation in rats in combination with MP-10; assay type: in vivo, rat; settings: SC, MP-10 (0.63 mg/kg) + apomorphine (1.0 mg/kg) i.v.
# Procedure: Inhibition of Apomorphine-induced Agitation in Rats in combination with MP-10 but the animals were simultaneously challenged with MP-10 (0.63 mg/kg) in addition to apomorphine (1.0 mg/kg) via one injection (2 ml/kg, i.v.), at a fixed time interval (standard 1 h) after s.c. or p.o. dosing of test compound or solvent. Twelve times, every 5 min, the intensity of agitation was scored 0 to 3.
# [8] = target: Human recombinant PDE2A (hPDE2A) (Homo sapiens (Human), UniProt O00408); experiment: In vitro assay PDE2A (SPA, 3H-cGMP); assay type: biochemical; settings: -log IC50 expressed in mol/L
# [9] = target: Rat recombinant PDE10A (rPDE10A2) (Rattus norvegicus (Rat), UniProt Q9QYJ6); experiment: In vitro assay PDE10A (SPA, 3H-cAMP); assay type: biochemical
# [10] = test system: cAMP and cGMP levels in the rat brain (hippocampus and striatum); settings: in vivo
# [11] = target: T1, PDE2 (Rattus norvegicus (Rat), UniProt Q01062); experiment: Potentiation of in vivo [3H]B-1a binding to PDE2 by MP-10 (ex vivo autoradiography)
# [12] = test system: Apomorphine-induced agitation in rats; experiment: Apomorphine-induced agitation: MP-10 (s.c.) dose-response with co-administered B-1a (FIGS. 1-3); assay type: in vivo, rat
# [13] = target: T1, PDE2; settings: rat brain sections
# Chain of Rat recombinant PDE10A (rPDE10A2) (Q9QYJ6 whole entry): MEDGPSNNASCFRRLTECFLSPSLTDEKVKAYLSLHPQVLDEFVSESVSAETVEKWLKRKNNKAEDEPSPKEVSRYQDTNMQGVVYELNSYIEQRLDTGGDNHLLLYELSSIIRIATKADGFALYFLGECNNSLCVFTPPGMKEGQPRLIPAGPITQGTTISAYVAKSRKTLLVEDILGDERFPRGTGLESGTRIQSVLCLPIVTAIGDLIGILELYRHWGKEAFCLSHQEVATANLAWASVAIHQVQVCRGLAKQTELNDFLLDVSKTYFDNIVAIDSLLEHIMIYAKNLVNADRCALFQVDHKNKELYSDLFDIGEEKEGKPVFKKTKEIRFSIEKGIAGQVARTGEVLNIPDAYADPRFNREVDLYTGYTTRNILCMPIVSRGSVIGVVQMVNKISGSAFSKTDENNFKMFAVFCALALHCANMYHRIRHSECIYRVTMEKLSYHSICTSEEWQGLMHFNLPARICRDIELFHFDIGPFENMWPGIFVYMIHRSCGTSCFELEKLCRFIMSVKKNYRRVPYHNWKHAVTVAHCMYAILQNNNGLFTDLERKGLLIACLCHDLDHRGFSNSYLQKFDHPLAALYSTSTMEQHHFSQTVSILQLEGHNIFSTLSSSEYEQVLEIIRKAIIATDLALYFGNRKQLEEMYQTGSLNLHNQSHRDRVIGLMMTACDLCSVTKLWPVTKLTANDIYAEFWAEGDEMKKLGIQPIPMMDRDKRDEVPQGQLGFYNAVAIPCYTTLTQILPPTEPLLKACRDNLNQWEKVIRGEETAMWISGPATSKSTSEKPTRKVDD
# T1 sequence (Q01062 whole entry): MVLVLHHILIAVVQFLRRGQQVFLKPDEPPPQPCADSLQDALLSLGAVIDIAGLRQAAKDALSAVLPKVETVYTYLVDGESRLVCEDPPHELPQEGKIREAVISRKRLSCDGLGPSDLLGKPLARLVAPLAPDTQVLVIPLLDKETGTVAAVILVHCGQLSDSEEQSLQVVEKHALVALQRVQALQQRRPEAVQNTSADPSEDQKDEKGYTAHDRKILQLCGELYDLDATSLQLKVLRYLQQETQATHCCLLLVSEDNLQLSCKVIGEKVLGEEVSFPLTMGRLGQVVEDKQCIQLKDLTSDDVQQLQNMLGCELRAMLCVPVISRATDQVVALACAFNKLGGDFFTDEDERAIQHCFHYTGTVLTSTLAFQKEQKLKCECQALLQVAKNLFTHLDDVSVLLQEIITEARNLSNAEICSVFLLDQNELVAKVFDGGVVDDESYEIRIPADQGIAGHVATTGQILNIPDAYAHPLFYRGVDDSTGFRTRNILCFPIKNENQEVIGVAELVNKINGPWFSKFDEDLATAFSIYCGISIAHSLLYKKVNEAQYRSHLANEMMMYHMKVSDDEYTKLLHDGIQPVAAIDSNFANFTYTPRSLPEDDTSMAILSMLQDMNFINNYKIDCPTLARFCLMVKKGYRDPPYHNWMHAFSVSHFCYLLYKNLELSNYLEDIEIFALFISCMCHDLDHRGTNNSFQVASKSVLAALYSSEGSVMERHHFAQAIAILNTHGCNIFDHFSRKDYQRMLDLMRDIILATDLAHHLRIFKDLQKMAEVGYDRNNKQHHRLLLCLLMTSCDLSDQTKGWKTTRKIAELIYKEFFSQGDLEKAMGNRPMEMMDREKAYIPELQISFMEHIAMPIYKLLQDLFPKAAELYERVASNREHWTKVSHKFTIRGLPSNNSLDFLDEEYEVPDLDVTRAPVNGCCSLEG
# Chain of Human recombinant PDE2A (hPDE2A) (O00408 whole entry): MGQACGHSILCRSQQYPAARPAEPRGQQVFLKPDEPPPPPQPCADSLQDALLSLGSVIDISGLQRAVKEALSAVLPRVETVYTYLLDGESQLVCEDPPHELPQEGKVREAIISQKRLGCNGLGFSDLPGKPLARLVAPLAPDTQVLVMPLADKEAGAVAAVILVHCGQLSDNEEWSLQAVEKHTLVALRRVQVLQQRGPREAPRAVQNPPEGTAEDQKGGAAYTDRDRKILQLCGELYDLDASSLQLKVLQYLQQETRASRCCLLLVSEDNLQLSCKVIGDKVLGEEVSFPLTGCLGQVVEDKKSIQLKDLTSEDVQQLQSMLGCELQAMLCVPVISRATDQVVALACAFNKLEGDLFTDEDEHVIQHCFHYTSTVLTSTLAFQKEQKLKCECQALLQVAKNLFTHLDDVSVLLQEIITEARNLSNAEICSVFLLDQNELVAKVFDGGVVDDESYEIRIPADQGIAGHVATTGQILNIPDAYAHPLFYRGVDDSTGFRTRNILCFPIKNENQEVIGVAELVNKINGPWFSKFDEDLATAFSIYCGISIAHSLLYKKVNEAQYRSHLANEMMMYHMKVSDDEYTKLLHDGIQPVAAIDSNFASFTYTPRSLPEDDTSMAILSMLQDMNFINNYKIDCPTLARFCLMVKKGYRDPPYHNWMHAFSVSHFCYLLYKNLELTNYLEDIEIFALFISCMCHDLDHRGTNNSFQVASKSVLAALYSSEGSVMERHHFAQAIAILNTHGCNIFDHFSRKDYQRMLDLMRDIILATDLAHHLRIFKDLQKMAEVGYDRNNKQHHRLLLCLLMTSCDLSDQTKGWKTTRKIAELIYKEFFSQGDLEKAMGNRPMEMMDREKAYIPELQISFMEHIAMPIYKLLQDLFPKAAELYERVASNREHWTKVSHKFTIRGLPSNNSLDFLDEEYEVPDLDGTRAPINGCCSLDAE
compound,measurement,setting,value
"CCCCOc1cncc(-c2nnc3c(C)nc4ccc(CN5CCOCC5)cc4n23)c1 [Compound B-1a, 1-(5-Butoxypyridin-3-yl)-4-methyl-8-(morpholin-4-ylmethyl) [1,2,4]triazolo[4,3-a]quinoxaline hydrochloride]","effect against d-amphetamine-induced hyperlocomotion, alone","[1]; 40 mg/kg s.c., 1 h",ineffective per se
same,Distance Total <2500 cm Effect,"[2]; Time -60, dose 0.31",3066 cm
same,Distance Total <2500 cm Effect,"[2]; Time -60, dose 0.63",2525 cm
same,Distance Total <2500 cm Effect,"[2]; Time -60, dose 1.25",1664 cm
same,Distance Total <2500 cm Effect,"[2]; Time -60, dose 2.5",1659 cm
same,Distance Total <2500 cm Effect,"[2]; Time -60, dose 5",1281 cm
same,Distance Total <2500 cm Effect,"[2]; Time -60, dose 10",727.6 cm
same,effect on apomorphine-induced agitation combined with Compound A or Compound B,"[3]; B-1a 5.0 mg/kg s.c., PDE10-i 2.5 mg/kg s.c.",significantly potentiated the effect of both PDE10-is
same,effect on apomorphine-induced agitation combined with the solvent of the PDE10-is,[3]; B-1a 0.63-5.0 mg/kg s.c.,did not affect apomorphine-induced agitation
same,Dose at max effect,[4],40
same,Max effect (lowest median cumulative agitation score),[4],23
same,LAD (lowest active dose),[4],>40
same,"effect against apomorphine-induced agitation, administered alone","[4]; without MP-10, at the tested doses",ineffective against apomorphine
same,effect on d-amphetamine-induced hyperlocomotion combined with the solvent of the PDE10-is,[5],ineffective against the d-amphetamine-induced hyperlocomotion
same,effect on d-amphetamine-induced hyperlocomotion combined with Compound A or Compound B,[5]; PDE10-i 2.5 mg/kg s.c.,potentiated the effect of both PDE10-is
same,incr vs contr (pmol cGMP/ml) (measured),[6]; 2.5 mpk,5.4 pmol cGMP/ml
same,incr vs contr (pmol cGMP/ml) (measured),[6]; 10 mpk,9.7 pmol cGMP/ml
same,Inh. of agitation < 10 Effect (cumulative agitation score),"[7]; Time 60, dose 0.63",18
same,Inh. of agitation < 10 Effect (cumulative agitation score),"[7]; Time 60, dose 1.25",10
same,Inh. of agitation < 10 Effect (cumulative agitation score),"[7]; Time 60, dose 2.5",11
same,Inh. of agitation < 10 Effect (cumulative agitation score),"[7]; Time 60, dose 5",6
same,Inh. of agitation < 10 Effect (cumulative agitation score),"[7]; Time 60, dose 10",7
same,Inh. of agitation < 10 Effect (cumulative agitation score),"[7]; Time 60, dose 40",1
"Cc1nc2ccc(CN3CCOCC3)cc2n2c(-c3ccccc3Cl)nnc12 [Compound B-3, 1-(2-Chlorophenyl)-4-methyl-8-(morpholin-4-ylmethyl)[1,2,4]triazolo[4,3-a]-quinoxaline]",pIC50 PDE2,[8],8.64
same,Dose at max effect,[4],5
same,Max effect (lowest median cumulative agitation score),[4],14
same,LAD (lowest active dose),[4],5
same,PIC50 PDE10,[9]; -log IC50 expressed in mol/L,7.47
CCCCOc1ccc(Cl)c(-c2nnc3c(C)nc4ccc(CN(C)C)cc4n23)c1 [Compound B-11],Distance Total <2500 cm Effect,"[2]; Time -60, dose 2.5",3494 cm
same,Distance Total <2500 cm Effect,"[2]; Time -60, dose 10",1960 cm
same,PIC50 PDE10,[9],5.67
same,Inh. of agitation < 10 Effect (cumulative agitation score),"[7]; Time 60, dose 2.5",17
same,Inh. of agitation < 10 Effect (cumulative agitation score),"[7]; Time 60, dose 10",7
same,Hippocampus cAMP (% of Control),[10],117 ± 20 % of Control
same,Hippocampus cGMP (% of Control),[10],150 ± 42 % of Control
same,Striatum cAMP (% of Control),[10],88 ± 12 % of Control
same,Striatum cGMP (% of Control),[10],121 ± 20 % of Control
CCCCOc1cncc(-c2nnc3c(C)nc4ccc(CN(C)C)cc4n23)c1 [Compound B-27],Distance Total <2500 cm Effect,"[2]; Time -60, dose 2.5",4145 cm
same,Distance Total <2500 cm Effect,"[2]; Time -60, dose 10",2500 cm
same,PIC50 PDE10,[9],5.03
same,Inh. of agitation < 10 Effect (cumulative agitation score),"[7]; Time 60, dose 10",14
same,Hippocampus cAMP (% of Control),[10],122 ± 10 % of Control
same,Hippocampus cGMP (% of Control),[10],104 ± 32 % of Control
same,Striatum cAMP (% of Control),[10],89 ± 6 % of Control
same,Striatum cGMP (% of Control),[10],128 ± 26 % of Control
COC(=O)[C@@H](N)CCCNC(=N)N[N+](=O)[O-] [L-NAME],effect of pre-treatment on potentiation of [3H]B-1a binding by MP-10,[11]; pre-treatment,prevented the potentiation
"Cn1cc(-c2ccncc2)c(-c2ccc(OCc3ccc4ccccc4n3)cc2)n1 [MP-10, 2-{[4-(1-methyl-4-pyridin-4-yl-1H-pyrazol-3-yl)phenoxy]methyl}quinoline]",ED50,"[1]; Rattus norvegicus, sc, read-out: ED50 for reducing d-amphetamine-induced hyperlocomotion to a distance <1000 cm, MP-10 (-1 h, s.c.) alone, historical data",> 40 mg/kg
same,"effect on d-amphetamine-induced hyperlocomotion, alone",[1]; up to 40 mg/kg s.c.,almost never achieves values <2500 cm
same,"in vivo [3H]B-1a binding expressed as % of binding in vehicle-treated rats, AVG",[11]; dose MP-10 0.63 mpk,80%
same,"in vivo [3H]B-1a binding expressed as % of binding in vehicle-treated rats, AVG",[11]; dose MP-10 2.5 mpk,302%
same,"in vivo [3H]B-1a binding expressed as % of binding in vehicle-treated rats, AVG",[11]; dose MP-10 10 mpk,501%
same,"in vivo [3H]B-1a binding expressed as % of binding in vehicle-treated rats, AVG",[11]; dose MP-10 40 mpk,739%
same,effect on apomorphine-induced agitation (median score),"[12]; MP-10 -1 h, s.c., with B-1a or solvent",dose-dependently inhibited agitation
same,median agitation scores <10,"[12]; MP-10 up to 10 mg/kg, co-administered B-1a <=0.63 mg/kg",not obtained
same,mean nmol cGMP/ml,[6]; 2.5 mpk,8.7 nmol cGMP/ml
same,fold increase,"[6]; cGMP vs vehicle, 2.5 mpk",1.4
same,incr vs contr (pmol cGMP/ml) (measured),[6]; 2.5 mpk,2.4 pmol cGMP/ml
O=P1(O)OCC2O[C@@H](n3cnc4ccccc43)[C@H](O)C2O1 (stereo partly shown) [cBIMP],effect on specific binding of [3H]B-1a,[13],increase the specific binding
